The values below come from publication PMC9367672, “In vitro differences in toddalolactone metabolism in various species and its effect on cytochrome P450 expression” (Pharmaceutical Biology, 2022).

What all share (type): in vitro ADME
The nature of data set [1]: Metabolic stability assessment in rat liver microsomes. The note with it: pH 7.4, RLMs, toddalolactone 20 μM, 0-90 min. As for the experimental part:
(§1) The CYP reaction system (200 μL) consisted of 0.1 M potassium phosphate buffer (pH 7.4), an NADPH-generating system (1 mM NADPH, 10 mM G-6-P, 1 unit/mL G-6-PD, 4 mM MgCl2), and liver microsomes or recombinant human microsomes (supersomes). Each of the in vitro enzymatic assays using liver microsomes was linear with respect to incubation time and amount of protein. After a pre-incubation at 37 °C for 3 min, the reactions were initiated by adding NADP^+. After incubating for 60 min, the reactions were quenched by adding 200 μL of ice-cold acetonitrile. Samples were centrifuged at 18,000 g for 15 min at 4 °C and 10 μL of supernatant was analyzed using an HPLC system. […]
(§2) In the UGT reaction system, liver microsomes were incubated in 200 μL of the reaction system containing 4 mM UDPGA, 5 mM MgCl2, 20 µg/mL alamethicin, and 50 mM Tris-HCl buffer (pH 7.4). […] After centrifugation at 18,000 g for 15 min, 10 μL of the supernatant was analyzed by HPLC.
(§3) Toddalolactone (20 μM) was incubated with different liver microsomes, including HLMs, DLMs, PLMs, MLMs, RAMs, RLMs or MIMs in oxidative metabolism and glucuronidation reaction systems. […] The mixtures were centrifuged at 18,000 g for 15 min at 4 °C and then 10 μL of the supernatant was analyzed by HPLC. […]
(§4) The peak areas of toddalolactone and its metabolites were detected using a HPLC system (Shimadzu, Kyoto, Japan). […]
For orientation: Liver microsomes are vesicles of endoplasmic reticulum, rich in cytochrome P450 enzymes.

Data set [2] can be described thus: Metabolic stability assessment in mouse liver microsomes. The note with it: pH 7.4, MIMs, CYP incubation system, toddalolactone 20 μM, 0-90 min, read-out: half-life value (T1/2). As for the experimental part:
as §1, §2, §3, §4

In the next data set the target is T1, CYP1A1 (Homo sapiens, UniProt P04798).
T1 sequence (P04798 1-512): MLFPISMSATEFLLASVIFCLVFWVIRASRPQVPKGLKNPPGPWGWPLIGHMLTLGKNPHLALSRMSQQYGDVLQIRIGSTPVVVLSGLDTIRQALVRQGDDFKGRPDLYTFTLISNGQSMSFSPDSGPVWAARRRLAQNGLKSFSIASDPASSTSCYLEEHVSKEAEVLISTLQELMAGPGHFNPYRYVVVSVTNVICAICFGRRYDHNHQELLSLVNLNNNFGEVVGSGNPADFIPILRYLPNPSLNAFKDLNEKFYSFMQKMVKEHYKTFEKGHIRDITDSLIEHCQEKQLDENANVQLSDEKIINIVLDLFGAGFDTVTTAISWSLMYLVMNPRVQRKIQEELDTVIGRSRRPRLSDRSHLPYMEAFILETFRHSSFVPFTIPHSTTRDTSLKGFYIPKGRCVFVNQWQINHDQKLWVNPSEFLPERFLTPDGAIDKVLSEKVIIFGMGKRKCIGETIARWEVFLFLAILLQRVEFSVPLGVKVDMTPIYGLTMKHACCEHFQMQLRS
In words: Reaction phenotyping with recombinant human CYP1A1. The note with it: CYP1A1 15 nM, 37 °C, 60 min; P4 main metabolite. Set-up: purchased Corning Life Sciences (Corning, MA). The protocol: The CYP reaction system (200 μL) consisted of 0.1 M potassium phosphate buffer (pH 7.4), an NADPH-generating system (1 mM NADPH, 10 mM G-6-P, 1 unit/mL G-6-PD, 4 mM MgCl2), and liver microsomes or recombinant human microsomes (supersomes). Each of the in vitro enzymatic assays using liver microsomes was linear with respect to incubation time and amount of protein. After a pre-incubation at 37 °C for 3 min, the reactions were initiated by adding NADP^+. After incubating for 60 min, the reactions were quenched by adding 200 μL of ice-cold acetonitrile. Samples were centrifuged at 18,000 g for 15 min at 4 °C and 10 μL of supernatant was analyzed using an HPLC system. NADPH or CYP enzyme sources were not used in the control group to ensure that the metabolic reactions were CYP- and NADPH-dependent. All incubation assays were completed in triplicate. The data are presented as mean ± standard deviation (SD).
Thirteen cDNA-expressed human CYP isoforms (CYP1A1, CYP1A2, CYP2A6, CYP2B6, CYP2C8, CYP3A4, CYP2C19, CYP3A5, CYP1B1, CYP2C9, CYP2D6, CYP2E1 and CYP4F2) were used to identify the isoform(s) involved in the biotransformation of toddalolactone. Toddalolactone (10 μM) was incubated with each recombinant CYP (15 nM) for 60 min at 37 °C and metabolites were identified by HPLC.

The structures appear in SMILES notation.

`COc1cc2oc(=O)ccc2c(OC)c1C[C@@H](O)C(C)(C)O` [toddalolactone]: the half-life at 20 μM in data set [1] (CYP incubation system, read-out: half-life value (T1/2)) was determined as 6.37 ± 0.283 h; in data set [1] (UGT incubation system, read-out: T1/2 value), 2.15 ± 0.197 h; in data set [2], 3.92 ± 0.35 h. Also, the “catalysis of toddalolactone metabolism by rhCYP isoform” value on CYP1A1 is given as “predominantly catalyzed”.
